Measurements published in patent publication US20180111893A1, “POLYCATIONIC AMPHIPHILES AND POLYMERS THEREOF AS ANTIMICROBIAL AGENTS AND METHODS USING SAME” (Temple University-Of The Commonwealth System of Higher …, priority 2015, published 2018).

Key:
Assay in all cases: Minimum inhibitory concentration (MIC)
Format in all cases: cell-based
[1] = test system: community-acquired methicillin-resistant Staphylococcus aureus CA-MRSA (USA300-0114); conditions: for difference in MIC of monoQAC versus triscationic analog against CA-MRSA: monocationic n,0,0 vs triscationic n,1,1; for potency against CA-MRSA: dye-based monoQACs; for MIC CA-MRSA: Table 6
Method: (§1) As used herein, the term “minimum inhibitory concentration (MIC)” refers to the lowest concentration of an antimicrobial agent that will inhibit the visible growth of a microorganism after overnight incubation. MIC values against bacteria, for example, the Gram-positive Staphylococcus aureus and Enterococcus faecalis and the Gram-negative Escherichia coli and Pseudomonas aeruginosa were determined by standard methods. See also P. A. Wayne, Methods for Dilution Antimicrobial Tests for Bacteria that Grow Aerobically; Approved Standard, Ninth Edition, 2012, CLSI Document M07-A9, Vol. 32 No. 2, which is incorporated by reference herein in its entirety.
(§2) Compounds were serially diluted two-fold from a 10% DMSO/aqueous stock solution to yield twelve test concentrations. Overnight S. aureus, E. faecalis, E. coli, P. aeruginosa, CA-MRSA, and HA-MRSA cultures diluted to ca. 10^6 cfu/mL in Mueller-Hinton media and 100 μL were inoculated into each well of a U-bottom 96-well plate (BD Biosciences, BD351177) containing 100 μL of compound solution. Plates were incubated statically at 37° C. for 72 hours upon which time wells were evaluated visually for bacterial growth. The MIC was determined as the lowest concentration of compound resulting in no bacterial growth visible to the naked eye, based on the majority of three independent experiments. Positive and negative DMSO/aqueous solution and media controls were conducted for each trial. See Peng et al., 2011, Chem. Comm. 47:4896-4898.
as §2, with “trial.” for “trial. See Peng et al., 2011, Chem. Comm. 47:4896-4898.”

[2] = test system: Staphylococcus aureus (SA; MSSA SH1000); conditions: Table 6
Method: as §1, §2
as §2, with “trial.” for “trial. See Peng et al., 2011, Chem. Comm. 47:4896-4898.”

[3] = test system: Escherichia coli (MC4100); conditions: Table 6
Method: as §1, §2
as §2, with “trial.” for “trial. See Peng et al., 2011, Chem. Comm. 47:4896-4898.”

[4] = test system: Enterococcus faecalis (OG1RF); conditions: Table 6
Method: as §1, §2
as §2, with “trial.” for “trial. See Peng et al., 2011, Chem. Comm. 47:4896-4898.”

[5] = test system: hospital-acquired methicillin-resistant Staphylococcus aureus HA-MRSA (ATCC 33591); conditions: Table 6
Method: as §1, §2
as §2, with “trial.” for “trial. See Peng et al., 2011, Chem. Comm. 47:4896-4898.”

[6] = test system: Pseudomonas aeruginosa (PAO1); conditions: Table 6
Method: as §1, §2
as §2, with “trial.” for “trial. See Peng et al., 2011, Chem. Comm. 47:4896-4898.”

SMILES	increase in MIC against CA-MRSA compared to SA ([1]; dye-based QACs, bacteria with vs without efflux pumps) [fold]	difference in MIC of monoQAC versus triscationic analog against CA-MRSA [1]	potency against CA-MRSA ([1]; in words)	MIC against CA-MRSA ([1]; dye-based QACs) [µM]	difference in MIC/activity between SA and CA-MRSA ([1]; dye-based QACs, in words)	MIC SA [2] [µM]	MIC CA-MRSA [1] [µM]	MIC EC [3] [µM]	MIC EF [4] [µM]	MIC HA-MRSA [5] [µM]	MIC PA [6] [µM]
CCCCCCCCCC[N+](C)(C)c1ccc(C(c2ccc([N+](C)(C)C)cc2)c2ccc([N+](C)(C)C)cc2)cc1 [LCV-10,1,1]	32										
CCCCCCCCCCCCCCCCCC[N+](C)(C)c1ccc(C(c2ccc(N(C)C)cc2)c2ccc(N(C)C)cc2)cc1 [LCV-18,0,0]		same differential									
CCCCCCCCCC[N+](C)(C)c1ccc(C(c2ccccc2)c2ccc(N(C)C)cc2)cc1 (centres unmarked) [LMG-10,0]			quite potent								
CCCCCCCCCCC[N+](C)(C)c1ccc(C(c2ccccc2)c2ccc(N(C)C)cc2)cc1 (centres unmarked) [LMG-11,0]			quite potent								
CCCCCCCCCCCCCCCC[N+](CC)(CC)c1ccc(N(c2ccc(N(CC)CC)cc2)c2ccc(N(CC)CC)cc2)cc1 [TET-16,0,0]		500 ×		250							
CCCCCCCCCCCCCCCC[N+](CC)(CC)c1ccc(N(c2ccc([N+](C)(CC)CC)cc2)c2ccc([N+](C)(CC)CC)cc2)cc1 [TET-16,1,1]				0.5	no difference in activity						
CCCCCCCC[N+](C)(C)CCCN(CCC[N+](C)(C)CCCCCCCC)CCC[N+](C)(C)CCCCCCCC [sT-8,8,8,0]						4	2	32	32	32	125
CCCCCCCC[N+](C)(C)CCC[N+](C)(CCC[N+](C)(C)CCCCCCCC)CCC[N+](C)(C)CCCCCCCC [sT-8,8,8,1]						0.5	1	4	16	16	250
C=CC[N+](CCC[N+](C)(C)CCCCCCCC)(CCC[N+](C)(C)CCCCCCCC)CCC[N+](C)(C)CCCCCCCC [sT-8,8,8,3A]						1	1	4	16	8	125
CCCCCCCCCC[N+](C)(C)CCCN(CCC[N+](C)(C)CCCCCCCCCC)CCC[N+](C)(C)CCCCCCCCCC [sT-10,10,10,0]						0.5	0.5	1	0.5	0.5	2
CCCCCCCCCC[N+](C)(C)CCC[N+](C)(CCC[N+](C)(C)CCCCCCCCCC)CCC[N+](C)(C)CCCCCCCCCC [sT-10,10,10,1]						0.5	0.5	0.5	0.5	0.5	2
C=CC[N+](CCC[N+](C)(C)CCCCCCCCCC)(CCC[N+](C)(C)CCCCCCCCCC)CCC[N+](C)(C)CCCCCCCCCC [sT-10,10,10,3A]						0.5	0.25	0.5	0.5	0.5	1
CCCCCCCCCCC[N+](C)(C)CCCN(CCC[N+](C)(C)CCCCCCCCCCC)CCC[N+](C)(C)CCCCCCCCCCC [sT-11,11,11,0]						0.5	0.5	0.5	0.5	0.5	1
CCCCCCCCCCC[N+](C)(C)CCC[N+](C)(CCC[N+](C)(C)CCCCCCCCCCC)CCC[N+](C)(C)CCCCCCCCCCC.[Br-].[Br-].[Br-].[I-] [sT-11,11,11,1]						0.5	≤0.25	0.25	0.25	0.5	1
C=CC[N+](CCC[N+](C)(C)CCCCCCCCCCC)(CCC[N+](C)(C)CCCCCCCCCCC)CCC[N+](C)(C)CCCCCCCCCCC [sT-11,11,11,3A]						0.5	0.5	0.5	0.5	1	1
